Measurements: patent US9115169B2, “Method of treating tumors” (Lytix Biopharma AS, priority 2000, dated 2015)
In brackets after ≈: the same amount, converted by molar mass. Read-outs that look alike come from different tables or passages of the source. Where a SMILES comes first, the peptide text is derived from it. [ ]: non-standard residue; d: D form. The star is where a group is joined. Bip = N[C@@H](Cc1ccc(-c2ccccc2)cc1)C(=O)O; tBuAla = CC(C)(C)C[C@H](N)C(=O)O; Cha = N[C@@H](CC1CCCCC1)C(=O)O; βNA = c1ccc2cc(N*)ccc2c1; OBn = c1ccc(CO*)cc1

Tests used:
[1] = test system: Escherichia coli ATCC 25922
[2] = test system: Staphylococcus aureus ATCC 25923
MRSA ATCC 33591 [3] = test system: MRSA ATCC 33591
Protocol: (§1) All strains were stored at −70° C. […] All assays were performed in duplicate.

MRSE ATCC 27626 [4] = test system: MRSE ATCC 27626
Protocol: as §1

[5] = test system: Escherichia coli ATCC 25922; details: ATCC 25922
[6] = test system: Staphylococcus aureus ATCC 25923; details: ATCC 25923
MRSA ATCC 33591 [7] = test system: MRSA ATCC 33591; remark: listed apart in the source
Protocol: as §1

MRSE ATCC 27626 [8] = test system: MRSE ATCC 27626; remark: listed apart in the source
Protocol: as §1

Protocol for P. aeruginosa: as §1

Structure (SMILES) | MIC E. coli ([1]; ATCC 25922) | MIC S. aureus ([2]; ATCC 25923) | MIC MRSA (MRSA ATCC 33591 [3]; ATCC 33591) | MIC MRSE (MRSE ATCC 27626 [4]; ATCC 27626) | MIC P. aerug. (P. aeruginosa) | MBC E. coli [5] | MBC S. aureus [6] | MBC MRSA (MRSA ATCC 33591 [7]) | MBC MRSE (MRSE ATCC 27626 [8]) | also measured
N=C(N)NCCC[C@H](NC(=O)[C@@H](N)Cc1ccc(-c2ccccc2)cc1)C(=O)OCc1ccccc1 [BipR-OBzl] (H-[Bip]-Arg-OBn; N-terminus assumed) | 150.0 µg/mL (≈ 308 µM) | 5.0 µg/mL (≈ 10.3 µM) | 5.0 µg/mL (≈ 10.3 µM) | 5.0 µg/mL (≈ 10.3 µM) | 100.0 µg/mL (≈ 205 µM) | – | – | – | – | –
COC(=O)[C@H](CCCNC(=N)N)NC(=O)[C@@H](N)Cc1ccc(-c2ccccc2)cc1 [BipR-OMe] (H-[Bip]-Arg-OMe; N-terminus assumed) | >300.0 µg/mL | 150.0 µg/mL (≈ 365 µM) | 50.0 µg/mL (≈ 122 µM) | 50.0 µg/mL (≈ 122 µM) | >300.0 µg/mL | – | – | – | – | –
N=C(N)NCCC[C@H](NC(=O)[C@@H](N)CC1CCCCC1)C(=O)OCc1ccccc1 [ChxAR-OBzl] (H-[Cha]-Arg-OBn; N-terminus assumed) | 300.0 µg/mL (≈ 718 µM) | 50 to 100 µg/mL | 25 to 37.5 µg/mL | 25.0 µg/mL (≈ 59.9 µM) | >300.0 µg/mL | – | – | – | – | –
N=C(N)NCCC[C@H](NC(=O)[C@@H](N)Cc1ccccc1)C(=O)OCc1ccccc1 [FR-Obzl] (H-Phe-Arg-OBn; N-terminus assumed) | – | – | – | – | >300.0 µg/mL | – | – | – | – | –
N=C(N)NCCC[C@H](NC(=O)[C@@H](N)Cc1ccccc1)C(=O)Nc1ccc2ccccc2c1 [FRβNA] (H-Phe-Arg-βNA) | – | – | – | – | – | – | – | – | – | Minimum inhibitory concentration E. coli ([1]; Table 9): >150 µg/mL; Minimum inhibitory concentration S. aureus ([2]; Table 9): 5 µg/mL (≈ 11.2 µM); Minimum inhibitory concentration MRSA (MRSA ATCC 33591 [3]; Table 9): 12.5 µg/mL (≈ 28 µM); Minimum inhibitory concentration MRSE (MRSE ATCC 27626 [4]; Table 9): 5 µg/mL (≈ 11.2 µM); Minimum inhibitory concentration P. aeruginosa (P. aeruginosa; Table 9): >300 µg/mL
NCCCC[C@H](N)C(=O)O[C@@H](Cc1c[nH]c2ccccc12)C(=O)OCc1ccccc1 [Kψ(COO)WOBzl] | – | – | – | – | – | – | – | – | – | Minimum inhibitory concentration E. coli ([1]; ATCC 25922): 150 µg/mL (≈ 354 µM); Minimum inhibitory concentration S. aureus ([2]; ATCC 25923): 50 µg/mL (≈ 118 µM); Minimum inhibitory concentration MRSA (MRSA ATCC 33591 [3]; ATCC 33591): 100 µg/mL (≈ 236 µM); Minimum inhibitory concentration MRSE (MRSE ATCC 27626 [4]; ATCC 27626): 37.5 µg/mL (≈ 88.5 µM); Minimum inhibitory concentration P. aeruginosa (P. aeruginosa): 300 µg/mL (≈ 708 µM)
NCCCC[C@H](N)C(=O)O[C@H](Cc1c[nH]c2ccccc12)C(=O)OCc1ccccc1 [Kψ(COO)wOBzl] | – | – | – | – | – | – | – | – | – | Minimum inhibitory concentration E. coli ([1]; ATCC 25922): 150 µg/mL (≈ 354 µM); Minimum inhibitory concentration S. aureus ([2]; ATCC 25923): 50 µg/mL (≈ 118 µM); Minimum inhibitory concentration MRSA (MRSA ATCC 33591 [3]; ATCC 33591): 100 µg/mL (≈ 236 µM); Minimum inhibitory concentration MRSE (MRSE ATCC 27626 [4]; ATCC 27626): 37.5 µg/mL (≈ 88.5 µM); Minimum inhibitory concentration P. aeruginosa (P. aeruginosa): 300 µg/mL (≈ 708 µM)
N=C(N)NCCC[C@H](NC(=O)[C@H](Cc1c[nH]c2ccccc12)NC(=O)[C@@H](N)CCCNC(=N)N)C(=O)N[C@@H](Cc1c[nH]c2ccccc12)C(=O)OCc1ccccc1 [RWRW-OBzl, H-L-Arg-L-Trp-L-Arg-L-Trp-OBzl] (H-RWRW-OBn) | 75 µg/mL (≈ 94.6 µM) | 5 µg/mL (≈ 6.31 µM) | 5 µg/mL (≈ 6.31 µM) | 2.5 (2.5) μg/ml | – | 100 µg/mL (≈ 126 µM) | 5 to 10 µg/mL | 5 to 10 µg/mL | 2.5 (2.5) μg/ml | –
N=C(N)NCCC[C@H](N)C(=O)N[C@@H](Cc1c[nH]c2ccccc12)C(=O)N[C@H](CCCNC(=N)N)C(=O)N[C@H](Cc1c[nH]c2ccccc12)C(=O)OCc1ccccc1 [RWrw-OBzl, H-L-Arg-L-Trp-D-Arg-D-Trp-OBzl] (H-RW[dR][dW]-OBn) | 75 µg/mL (≈ 94.6 µM) | 5 (5) μg/ml | 2.5 to 5 µg/mL | 2.5 (2.5) μg/ml | – | 75 to 100 µg/mL | 5 (5) μg/ml | 5 µg/mL (≈ 6.31 µM) | 2.5 (2.5) μg/ml | –
N=C(N)NCCC[C@H](NC(=O)[C@@H](N)Cc1c[nH]c2ccccc12)C(=O)OCc1ccccc1 [WR-OBzl] (H-Trp-Arg-OBn; N-terminus assumed) | – | – | 37.5 µg/mL (≈ 83.2 µM) | 50.0 µg/mL (≈ 111 µM) | >300.0 µg/mL | – | – | – | – | –
N=C(N)NCCC[C@H](NC(=O)[C@@H](N)Cc1c[nH]c2ccccc12)C(=O)N[C@@H](Cc1c[nH]c2ccccc12)C(=O)OCc1ccccc1 [WRW OBz] (H-Trp-Arg-Trp-OBn) | 75 µg/mL (≈ 118 µM) | 5 (5) μg/ml | 5 µg/mL (≈ 7.85 µM) | 5 (5) μg/ml | – | 200 µg/mL (≈ 314 µM) | 5 (5) μg/ml | 10 µg/mL (≈ 15.7 µM) | 5 (5) μg/ml | –
N=C(N)NCCC[C@@H](N)C(=O)N[C@H](Cc1c[nH]c2ccccc12)C(=O)OCc1ccccc1 [rw OBz] (H-[dR]-[dW]-OBn) | >200 (>200) μg/ml | 50 µg/mL (≈ 111 µM) | 50 µg/mL (≈ 111 µM) | 20 µg/mL (≈ 44.4 µM) | – | >200 (>200) μg/ml | 75 µg/mL (≈ 166 µM) | 75 µg/mL (≈ 166 µM) | 25 µg/mL (≈ 55.5 µM) | –
CC(C)(C)C[C@H](N)C(=O)N[C@@H](CCCNC(=N)N)C(=O)OCc1ccccc1 [tBuAR-OBzl] (H-[tBuAla]-Arg-OBn; N-terminus assumed) | >300.0 µg/mL | 300.0 µg/mL (≈ 766 µM) | 150 to 200 µg/mL | 100.0 µg/mL (≈ 255 µM) | >300.0 µg/mL | – | – | – | – | –
N=C(N)NCCC[C@H](NC(=O)[C@H](N)Cc1c[nH]c2ccccc12)C(=O)N[C@@H](Cc1c[nH]c2ccccc12)C(=O)OCc1ccccc1 [wRW OBz] (H-[dW]-Arg-Trp-OBn) | 75 µg/mL (≈ 118 µM) | 20 (20) μg/ml | 20 (20) μg/ml | 10 (10) μg/ml | – | 100 µg/mL (≈ 157 µM) | 20 (20) μg/ml | 20 (20) μg/ml | 10 (10) μg/ml | –
N=C(N)NCCC[C@@H](NC(=O)[C@H](N)Cc1c[nH]c2ccccc12)C(=O)N[C@H](Cc1c[nH]c2ccccc12)C(=O)OCc1ccccc1 [wrw OBz] (H-[dW]-[dR]-[dW]-OBn) | 75 µg/mL (≈ 118 µM) | 5 (5) μg/ml | 5 µg/mL (≈ 7.85 µM) | 5 (5) μg/ml | – | 200 µg/mL (≈ 314 µM) | 5 (5) μg/ml | 10 µg/mL (≈ 15.7 µM) | 5 (5) μg/ml | –
